Values after ≈ are worked out from the molar mass of the structure shown. Active and inactive are the calls of the source. The rule behind the calls is not given here. *1 amine or outer side, *2 acyl side, *3 side chain or, on linkers, in order; H or OH if unused. Where a SMILES comes first, the peptide text is derived from it. [ ]: non-standard residue; d: D form. AzaAla = CN(N[*:1])C(=O)[*:2]; Lac = C[C@H](O)C(=O)O
What was measured:
[1] = target: T1, Pancreatic elastase (Sus scrofa) (UniProt P08419+P00772); assay: Inhibition of porcine pancreatic elastase assessed as Ac-Ala-Ala-Pro-Ala-p-nitroanilide conversion to p-nitroaniline by spectrophotometric analysis; assay type: protein assay
[2] = target: T1, Pancreatic elastase (Sus scrofa); assay: Reversible inhibition of porcine pancreatic elastase assessed as enzyme recovery by sephadex G-25 rapid passage assay; assay type: protein assay
[3] = target: T1, Pancreatic elastase (Sus scrofa); assay: Activity at porcine pancreatic elastase assessed as compound hydrolysis at 1 mg incubated at room temperature up to 24 hrs by TLC analysis; assay type: protein assay
Pancreatic elastase = Pancreatic elastase (Sus scrofa, UniProt P08419+P00772); assay: Noncompetitive inhibition of porcine pancreatic elastase using Ac-Ala-Ala-Pro-Ala-p-nitroanilide as substrate by Dixon plot analysis; assay type: protein assay
[4] = target: T1, Pancreatic elastase (Sus scrofa); assay: Reversible inhibition of porcine pancreatic elastase assessed as enzyme recovery; assay type: protein assay
[5] = target: T2, Neutrophil elastase (Homo sapiens) (UniProt P08246)
T2 sequence (whole entry): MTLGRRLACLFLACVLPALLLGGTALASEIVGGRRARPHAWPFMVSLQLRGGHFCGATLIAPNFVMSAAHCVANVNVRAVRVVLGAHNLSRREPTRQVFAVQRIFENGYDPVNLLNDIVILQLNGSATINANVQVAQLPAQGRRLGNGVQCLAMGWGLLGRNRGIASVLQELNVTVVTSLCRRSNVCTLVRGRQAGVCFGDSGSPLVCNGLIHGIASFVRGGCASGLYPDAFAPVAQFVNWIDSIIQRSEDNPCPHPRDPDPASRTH
Description: Inhibition of human granulocyte elastase assessed as Ac-Ala-Ala-Pro-Ala-p-nitroanilide conversion to p-nitroaniline by spectrophotometric analysis

[6] = target: T1, Pancreatic elastase (Sus scrofa); assay: Activity at porcine pancreatic elastase assessed as compound hydrolysis at 1 mg incubated at room temperature after 5 mins by TLC analysis; assay type: protein assay

ID50 [1]	Structure (SMILES)	also measured
0.3 µg/mL	CC(=O)N1CCC[C@H]1C(=O)N[C@@H](C)C(=O)N1CCC[C@H]1C(=O)NN(C)C(=O)OC(C)C(N)=O (mixture of isomers)	inhibition [2]: Active; Activity [3]: inactive; Ki (Pancreatic elastase): 4.5 ×10⁻⁷ M; inhibition [4]: inactive
20 µg/mL (≈ 50.1 µM)	CCOC(=O)N(C)NC(=O)[C@@H]1CCCN1C(=O)[C@H](C)NC(=O)[C@H](C)NC(C)=O	–
60 µg/mL (≈ 141 µM)	CCOC(=O)N(C)NC(=O)[C@@H]1CCCN1C(=O)[C@H](C)NC(=O)[C@@H]1CCCN1C(C)=O	–
1.5 µg/mL (≈ 2.63 µM)	CCOC(=O)[C@H](C)OC(=O)[C@H](C)OC(=O)N(C)NC(=O)[C@@H]1CCCN1C(=O)[C@H](C)NC(=O)[C@@H]1CCCN1C(C)=O	–
1.5 µg/mL (≈ 2.76 µM)	CCOC(=O)[C@H](C)OC(=O)[C@H](C)OC(=O)N(C)NC(=O)[C@@H]1CCCN1C(=O)[C@H](C)NC(=O)[C@H](C)NC(C)=O	–
9 µg/mL (≈ 18.5 µM)	CCOC(=O)[C@H](C)OC(=O)N(C)NC(=O)[C@H](CC(C)C)NC(=O)[C@H](C)NC(=O)[C@H](C)NC(C)=O	–
33 µg/mL (≈ 70 µM)	CCOC(=O)[C@H](C)OC(=O)[C@H](C)OC(=O)[C@@H]1CCCN1C(=O)[C@H](C)NC(=O)[C@H](C)NC(C)=O (Ac-AAP[Lac][Lac]-OEt)	–
0.4 µg/mL (≈ 0.771 µM)	CC(=O)N[C@@H](C)C(=O)N[C@@H](C)C(=O)N1CCC[C@H]1C(=O)NN(C)C(=O)O[C@@H](C)C(=O)Nc1ccccc1	Ki (Pancreatic elastase): 4.5 ×10⁻⁷ M
0.5 µg/mL (≈ 0.937 µM)	CC(=O)N[C@@H](C)C(=O)N[C@@H](C)C(=O)N1CCC[C@H]1C(=O)NN(C)C(=O)O[C@@H](C)C(=O)OCc1ccccc1	–
0.3 µg/mL (≈ 0.563 µM)	CC(=O)N[C@@H](C)C(=O)N[C@@H](C)C(=O)N1CCC[C@H]1C(=O)NN(C)C(=O)O[C@@H](C)C(=O)NCc1ccccc1	Ki (Pancreatic elastase): 8.5 ×10⁻⁷ M
90 µg/mL (≈ 197 µM)	CCOC(=O)N(C)NC(=O)[C@@H]1CCCN1C(=O)[C@H](C)NC(=O)[C@H](C)NC(=O)OC(C)(C)C	–
2 µg/mL (≈ 3.65 µM)	CCOC(=O)[C@H](Cc1ccccc1)OC(=O)N(C)NC(=O)[C@@H]1CCCN1C(=O)[C@H](C)NC(=O)[C@H](C)NC(C)=O	–
100 µg/mL (≈ 213 µM)	CCOC(=O)[C@H](C)NC(=O)N(C)NC(=O)[C@@H]1CCCN1C(=O)[C@H](C)NC(=O)[C@H](C)NC(C)=O (Ac-AAP[AzaAla]A-OEt)	–
0.25 µg/mL (≈ 0.546 µM)	CC(=O)N[C@@H](C)C(=O)N[C@@H](C)C(=O)N1CCC[C@H]1C(=O)NN(C)C(=O)O[C@@H](C)C(=O)NN	Ki (Pancreatic elastase): 6.5 ×10⁻⁷ M

More lines, now with the values behind:

Structure (SMILES)	ID50 [1]	also measured
C[C@H](NC(=O)OCc1ccccc1)C(=O)N[C@@H](C)C(=O)N1CCC[C@H]1C(=O)NN(C)C(=O)Oc1ccc([N+](=O)[O-])cc1	1 µg/mL (≈ 1.71 µM)	–
CC(=O)N[C@@H](C)C(=O)N[C@@H](C)C(=O)N1CCC[C@H]1C(=O)NN(C)C(=O)O[C@@H](C)C(=O)O	110 µg/mL (≈ 248 µM)	–
CCOC(=O)[C@H](C)OC(=O)N(C)NC(=O)[C@H](C)NC(C)=O	–	inhibition [1]: inactive
CCOC(=O)NNC(=O)[C@@H]1CCCN1C(=O)[C@H](C)NC(=O)[C@@H]1CCCN1C(C)=O	–	inhibition [1]: inactive
CCOC(=O)NNC(=O)[C@@H]1CCCN1C(=O)[C@H](C)NC(=O)[C@H](C)NC(C)=O	–	inhibition [1]: inactive
CCOC(=O)NNC(=O)[C@@H]1CCCN1C(=O)[C@H](C)NC(=O)[C@H](C)NC(=O)OC(C)(C)C	–	inhibition [1]: inactive
CC(=O)N[C@@H](C)C(=O)N[C@@H](C)C(=O)N1CCC[C@H]1C(=O)NN(C)C(=O)O[C@@H](C)C(=O)N(C)N	2 µg/mL (≈ 4.24 µM)	ID50 [5]: 50 µg/mL (≈ 106 µM)
CCOC(=O)[C@H](Cc1ccccc1)NC(=O)[C@H](C)OC(=O)N(C)NC(=O)[C@@H]1CCCN1C(=O)[C@H](C)NC(=O)[C@H](C)NC(C)=O	2 µg/mL (≈ 3.23 µM)	–
CCOC(=O)[C@H](C)OC(=O)[C@H](C)NC(=O)[C@@H]1CCCN1C(=O)[C@H](C)NC(=O)[C@H](C)NC(C)=O (Ac-AAPA[Lac]-OEt)	167 µg/mL (≈ 355 µM)	Activity [6]: Active
CCOC(=O)[C@H](C)OC(=O)[C@H](C)NC(=O)[C@@H]1CCCN1C(=O)[C@H](C)NC(=O)[C@@H]1CCCN1C(C)=O (Ac-PAPA[Lac]-OEt)	–	inhibition [1]: inactive; Activity [6]: Active
CCOC(=O)N(C)NC(=O)[C@H](C)NC(C)=O	–	inhibition [1]: inactive
CCOC(=O)N(C)NC(=O)[C@@H]1CCCN1C(=O)[C@H](C)NC(=O)[C@H](C)NC(=O)OCc1ccccc1	30 µg/mL (≈ 61 µM)	–
CNC(=O)[C@H](C)OC(=O)N(C)NC(=O)[C@@H]1CCCN1C(=O)[C@H](C)NC(=O)[C@H](C)NC(C)=O	0.4 µg/mL (≈ 0.876 µM)	Ki (Pancreatic elastase): 6.5 ×10⁻⁷ M
CCOC(=O)[C@H](C)OC(=O)N(C)NC(=O)[C@@H]1CCCN1C(=O)[C@H](C)NC(=O)[C@@H]1CCCN1C(C)=O	6 µg/mL (≈ 12.1 µM)	–
CCOC(=O)C(C)OC(=O)N(C)NC(=O)[C@@H]1CCCN1C(=O)[C@H](C)NC(=O)[C@@H]1CCCN1C(C)=O (stereo partly drawn)	4.5 µg/mL (≈ 9.04 µM)	–
CCOC(=O)[C@H](C)OC(=O)[C@H](C)OC(=O)[C@@H]1CCCN1C(=O)[C@H](C)NC(=O)[C@@H]1CCCN1C(C)=O (Ac-PAP[Lac][Lac]-OEt)	167 µg/mL (≈ 336 µM)	–
CC(=O)N[C@@H](C)C(=O)N[C@@H](C)C(=O)N1CCC[C@H]1C(=O)NN(C)C(=O)O[C@@H](C)C(N)=O	0.4 µg/mL (≈ 0.904 µM)	Ki (Pancreatic elastase): 5 ×10⁻⁷ M
CCOC(=O)[C@H](C)OC(=O)N(C)NC(=O)[C@H](CC(C)C)NC(=O)[C@H](C)NC(=O)[C@@H]1CCCN1C(C)=O	15 µg/mL (≈ 29.2 µM)	–
CCOC(=O)[C@H](C)OC(=O)N(C)NC(C)=O	–	inhibition [1]: inactive
CCOC(=O)[C@H](C)OC(=O)N(C)NC(=O)[C@@H]1CCCN1C(=O)[C@H](C)NC(=O)[C@H](C)NC(C)=O	1 µg/mL (≈ 2.12 µM)	Activity [3]: inactive
CCOC(=O)[C@H](C)NC(=O)N(C)NC(=O)[C@@H]1CCCN1C(=O)[C@H](C)NC(=O)[C@@H]1CCCN1C(C)=O (Ac-PAP[AzaAla]A-OEt)	–	inhibition [1]: inactive

Source: ChEMBL document CHEMBL3272312, “Proteinase inhibitors. I. Inhibitors of elastase” (J Med Chem, 1977)
